Read-outs that look alike come from different tables or passages of the source. Where a SMILES comes first, the peptide text is derived from it. Bridges are numbered along the chain shown (N, C = ends). [ ]: non-standard residue; d: D form. Nle = CCCC[C@H](N)C(=O)O

Assay [1] deals with T1, human MOR (Homo sapiens, UniProt P35372).
T1 construct: expressed in transfected cells; host or cells: CHO cells (University of Ferrara), co-expressing Gαqi5
Put plainly: Calcium mobilization functional assay, agonist mode. The settings on record: CHO cells co-expressing human MOR and Gαqi5, n = 5; for EC50: Fluo-4 AM calcium signal, read-out: MOR pEC50 (CL95%) (converted); for MOR α ± SEM: efficacy (intrinsic activity), Emax relative to EM-2, mean ± SEM. Type of assay: cell-based.

Assay [2] deals with T2, human NK1 (Homo sapiens, UniProt P25103). Put plainly: Calcium mobilization assay, inhibition response experiments against SP. Type of assay: cell-based. On the set-up: expressed in transfected cells; host or cells: CHO cells (gift of Prof. T. Costa, ISS, Rome). On the procedure:
Following aspiration of the loading solution and a washing step, serial dilutions of peptide stock solutions were added.
(§1) The pharmacological terminology adopted in this paper is consistent with International Union of Basic and Clinical Pharmacology (IUPHAR) recommendations. Concentration–response curves were analyzed by nonlinear regression using Graph Pad Prism 6.0 (La Jolla, CA, USA). […] Concentration–response curves were fitted with the four-parameter logistic nonlinear regression model (1) Effect=baseline+Emax−baseline/1+10^logEC50−X·n where X is the agonist concentration and n is the Hill coefficient. Ligand efficacy was expressed as intrinsic activity (α) calculated as a ratio of the peptide Emax to the Emax of the standard agonist (Supplementary Materials, Figure S7). […] All statistical analyses were performed using Graph Pad Prism 6.0 (La Jolla, CA, USA). Differences between groups were analyzed with one-way ANOVA and a post hoc multiple comparison by the Student–Newman–Keuls test. A probability level of 0.05 or smaller was used to indicate statistical significance.
(Calcium assays in cells follow changes in intracellular calcium, usually with a dye or a luminescent sensor.)

The target of assay [3] is T3, human opioid receptor MOR (Homo sapiens, UniProt P35372).
T3 construct: purchased PerkinElmer (Krakow, Poland); host or cells: CHO cell membranes
T3 sequence (P35372 whole entry): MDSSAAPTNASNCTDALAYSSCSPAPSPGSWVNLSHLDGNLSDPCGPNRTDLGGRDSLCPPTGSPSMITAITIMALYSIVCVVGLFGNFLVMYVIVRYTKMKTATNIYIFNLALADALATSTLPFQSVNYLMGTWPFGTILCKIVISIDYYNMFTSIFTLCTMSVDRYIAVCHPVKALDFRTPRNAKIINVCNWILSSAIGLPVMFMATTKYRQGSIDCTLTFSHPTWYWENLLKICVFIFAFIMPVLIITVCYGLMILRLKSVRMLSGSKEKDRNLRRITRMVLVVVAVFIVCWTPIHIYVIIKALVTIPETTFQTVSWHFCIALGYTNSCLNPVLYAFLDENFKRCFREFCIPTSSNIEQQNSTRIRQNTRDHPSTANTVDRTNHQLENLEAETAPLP
Put plainly: Radioligand binding assay, displacement of [3H]DAMGO. The settings on record: displacement of [3H]DAMGO from membranes of CHO cells transfected with human MOR, 50 mM Tris/HCl pH 7.4, 0.5% BSA, peptidase inhibitors, 2 h at 25 °C, mean ± SEM, n ≥ 3. On the procedure:
(§2) A radioligand binding assay was performed to determine the opioid receptor (OR) binding affinities of the novel analogs using commercially available membranes of Chinese hamster ovary cells (CHO) transfected with human recombinant ORs. [^3H]DAMGO, [^3H]deltorphin-2, and [^3H]U-69593 were used as the radioligands for MOR, DOR, and KOR, respectively. Tyr-[D-Lys-Phe-Phe-Asp]NH2 (1) was used as a reference opioid compound. […] None of them acquired significant DOR affinity.
(§3) To determine the affinity of peptide analogs to respective receptors, competition binding experiments were performed, as described in detail elsewhere.
(§4) Commercial membranes of CHO cells stably expressing either human ORs or NK1 receptor were used. [^3H]DAMGO, [^3H]deltorphin-2, and [^3H]U-69593 were employed as the competing radioligands for MOR, DOR, and KOR, respectively, while [^3H][Sar^9, Met(O2)^11]SP was utilized for the NK1 receptor. Membranes were incubated in a 0.5 mL volume of 50 mM Tris/HCl (pH = 7.4), 0.5% bovine serum albumin (BSA), with a number of peptidase inhibitors (bacitracin, bestatin, captopril) and various concentrations of radioligands for 2 h at 25 °C. Nonspecific binding was assessed in the presence of […] naloxone for ORs or SP for NK1 receptor.
(§5) The pharmacological terminology adopted in this paper is consistent with International Union of Basic and Clinical Pharmacology (IUPHAR) recommendations. Concentration–response curves were analyzed by nonlinear regression using Graph Pad Prism 6.0 (La Jolla, CA, USA). […]. […] Concentration–response curves were fitted with the four-parameter logistic nonlinear regression model (1) Effect=baseline+Emax−baseline/1+10^logEC50−X·n where X is the agonist concentration and n is the Hill coefficient. Ligand efficacy was expressed as intrinsic activity (α) calculated as a ratio of the peptide Emax to the Emax of the standard agonist (Supplementary Materials, Figure S7). […]. All statistical analyses were performed using Graph Pad Prism 6.0 (La Jolla, CA, USA). Differences between groups were analyzed with one-way ANOVA and a post hoc multiple comparison by the Student–Newman–Keuls test. A probability level of 0.05 or smaller was used to indicate statistical significance.
In general terms: Displacement assays read how much labelled ligand stays bound in the presence of the test substance.

Assay [4] addresses T2, human NK1. The experiment in a line: Calcium mobilization functional assay, agonist mode, CHONK1 cells. Format: cell-based. Details: expressed in transfected cells; host or cells: CHO cells (gift of Prof. T. Costa, ISS, Rome). To be noted: for NK1 α ± SEM: efficacy (intrinsic activity), Emax relative to SP.
The target in assay [5] is T4, human KOR (Homo sapiens, UniProt P41145).
T4 construct: expressed in transfected cells; host or cells: CHO cells (University of Ferrara), co-expressing Gαqi5
T4 sequence (P41145 whole entry): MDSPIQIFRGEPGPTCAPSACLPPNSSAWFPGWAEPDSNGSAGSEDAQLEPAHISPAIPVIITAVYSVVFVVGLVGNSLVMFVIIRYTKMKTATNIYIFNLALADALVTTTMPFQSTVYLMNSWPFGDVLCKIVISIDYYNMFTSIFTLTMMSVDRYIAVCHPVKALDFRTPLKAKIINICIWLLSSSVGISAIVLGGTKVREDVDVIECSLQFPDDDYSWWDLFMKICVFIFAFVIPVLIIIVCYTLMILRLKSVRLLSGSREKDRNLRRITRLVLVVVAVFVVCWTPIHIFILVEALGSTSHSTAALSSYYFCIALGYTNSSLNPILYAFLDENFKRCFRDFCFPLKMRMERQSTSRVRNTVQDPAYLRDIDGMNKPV
The experiment in a line: Calcium mobilization functional assay, agonist mode. Format: cell-based. The settings on record: for KOR α ± SEM: efficacy (intrinsic activity), Emax relative to dynorphin A, mean ± SEM.

Assay [6] addresses T2, human NK1. The experiment in a line: Radioligand binding assay, displacement of [3H][Sar9, Met(O2)11]SP. Details: purchased PerkinElmer (Krakow, Poland); host or cells: CHO cell membranes. To be noted: displacement of [3H][Sar9, Met(O2)11]SP from membranes of CHO cells transfected with human NK1 receptor; 50 mM Tris/HCl pH 7.4, 0.5% BSA, peptidase inhibitors, 2 h at 25 °C; mean ± SEM, n ≥ 3; SEM. On the procedure: The binding assay was also used to examine the affinity of the synthesized hybrids for NK1 in commercial membranes of CHO cells stably expressing human NK1.
as §3
(§6) Commercial membranes of CHO cells stably expressing either human ORs or NK1 receptor were used. […] Membranes were incubated in a 0.5 mL volume of 50 mM Tris/HCl (pH = 7.4), 0.5% bovine serum albumin (BSA), with a number of peptidase inhibitors (bacitracin, bestatin, captopril) and various concentrations of radioligands for 2 h at 25 °C.
as §1

For assay [7], the target named is T5, human opioid receptor DOR (Homo sapiens, UniProt P41143).
T5 construct: purchased PerkinElmer (Krakow, Poland); host or cells: CHO cell membranes
T5 sequence (P41143 whole entry): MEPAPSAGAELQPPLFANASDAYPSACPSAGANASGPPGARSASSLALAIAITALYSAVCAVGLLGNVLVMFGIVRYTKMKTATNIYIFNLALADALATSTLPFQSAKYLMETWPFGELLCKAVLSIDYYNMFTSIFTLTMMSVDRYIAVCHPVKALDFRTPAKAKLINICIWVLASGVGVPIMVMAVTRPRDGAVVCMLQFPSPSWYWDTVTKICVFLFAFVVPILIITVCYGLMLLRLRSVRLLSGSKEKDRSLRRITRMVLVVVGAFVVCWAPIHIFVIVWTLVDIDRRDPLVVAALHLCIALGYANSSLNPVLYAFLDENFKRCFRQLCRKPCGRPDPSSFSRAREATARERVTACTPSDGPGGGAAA
The experiment in a line: Radioligand binding assay, displacement of [3H]deltorphin-2. The settings on record: displacement of [3H]deltorphin-2 from membranes of CHO cells transfected with human DOR, 50 mM Tris/HCl pH 7.4, 0.5% BSA, peptidase inhibitors, 2 h at 25 °C, mean ± SEM, n ≥ 3. On the procedure: A radioligand binding assay was performed to determine the opioid receptor (OR) binding affinities of the novel analogs using commercially available membranes of Chinese hamster ovary cells (CHO) transfected with human recombinant ORs. […] Tyr-[D-Lys-Phe-Phe-Asp]NH2 (1) was used as a reference opioid compound.
as §3, §6, §1

Assay [8] deals with T6, DOR (Homo sapiens, UniProt P41143).
T6 construct: expressed in transfected cells; host or cells: CHO cells (University of Ferrara), co-expressing GαqG66Di5
T6 sequence (P41143 whole entry): as above
Put plainly: Calcium mobilization functional assay, agonist mode. Type of assay: cell-based. To be noted: CHO cells co-expressing DOR and GαqG66Di5, n = 5; for DOR α ± SEM: efficacy (intrinsic activity), Emax relative to DPDPE, mean ± SEM; for EC50: read-out: DOR pEC50 (CL95%) (converted).

Assay [9] addresses T7, human opioid receptor KOR (Homo sapiens, UniProt P41145).
T7 construct: purchased PerkinElmer (Krakow, Poland); host or cells: CHO cell membranes
The experiment in a line: Radioligand binding assay, displacement of [3H]U-69593. The settings on record: displacement of [3H]U-69593 from membranes of CHO cells transfected with human KOR, 50 mM Tris/HCl pH 7.4, 0.5% BSA, peptidase inhibitors, 2 h at 25 °C, mean ± SEM, n ≥ 3. On the procedure:
as §2, §3, §4, §5

[10] abbreviates: CHO cells co-expressing human KOR and Gαqi5, Fluo-4 AM calcium signal, n = 5, read-out: KOR pEC50 (CL95%) (converted).
The mark [11] stands for this setting: CHO cells co-expressing human KOR and Gαqi5, n = 5.

T1 sequence (P35372 whole entry): as the sequence (P35372 whole entry) above
T7 sequence (P41145 whole entry): as the sequence (P41145 whole entry) above
T2 sequence (P25103 whole entry): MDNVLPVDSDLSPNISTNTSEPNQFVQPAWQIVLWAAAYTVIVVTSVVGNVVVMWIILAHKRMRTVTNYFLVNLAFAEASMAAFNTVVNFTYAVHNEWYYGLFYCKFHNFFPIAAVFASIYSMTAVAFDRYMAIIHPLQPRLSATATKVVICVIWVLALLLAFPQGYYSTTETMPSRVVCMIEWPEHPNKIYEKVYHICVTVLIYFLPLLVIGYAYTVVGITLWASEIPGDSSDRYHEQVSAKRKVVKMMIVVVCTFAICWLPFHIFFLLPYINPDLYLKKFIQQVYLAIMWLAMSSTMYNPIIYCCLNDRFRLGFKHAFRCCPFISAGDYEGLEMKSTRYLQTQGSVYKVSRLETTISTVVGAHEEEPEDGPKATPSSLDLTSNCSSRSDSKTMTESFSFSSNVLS

As for `CCCC[C@H](NC(=O)[C@H](CC(C)C)NC(=O)[C@@H](Cc1c[nH]c2ccccc12)NC(=O)[C@H](Cc1ccccc1)NC(=O)[C@@H](Cc1c[nH]c2ccccc12)NC(=O)[C@@H]1CC(=O)NCCCC[C@@H](NC(=O)[C@@H](N)Cc2ccc(O)cc2)C(=O)N[C@@H](Cc2ccccc2)C(=O)N[C@@H](Cc2ccccc2)C(=O)N1)C(N)=O` [compound 3, Tyr-[D-Lys-Phe-Phe-Asp]-D-Trp-Phe-D-Trp-Leu-Nle-NH2] (H-Y[dK]FFD[dW]F[dW]L[Nle]-NH2; lactam 2-5), the EC50 in assay [1] was 174 nM; in assay [5] (setting [10]), 3.55 nM. Further, the “MOR α ± SEM” value in assay [1] turned out to be 0.72; in assay [1] (SEM) it was 0.72 ± 0.04. Further, the Kb in [2] was 23.4 nM. Moreover, the Ki (usually the equilibrium dissociation constant of an inhibitor or competing ligand from its target) was determined as 28.2 ± 1.45 nM in assay [3], 12.8 ± 0.92 nM in [6], 213 ± 6.31 nM in assay [7] and 2.85 ± 0.44 nM in assay [9]. Further, in [4] (CHO cells expressing human NK1 (CHONK1), Fluo-4 AM calcium signal, N = 5), the “NK1 pEC50 (CL95%)” value is “Inactive”. Besides, the “NK1 α ± SEM” value in assay [4] (CHONK1 cells, N = 5) is given as “Inactive”. Moreover, in assay [5] (setting [11]), the “KOR α ± SEM” value was 1.05 ± 0.05. Besides, the “DOR pEC50 (CL95%)” value in assay [8] (Fluo-4 AM calcium signal) was “Crc incomplete”. For the same compound, the “DOR α ± SEM” value in assay [8] is “Crc incomplete”.

As to `CSCC[C@H](NC(=O)[C@H](CC(C)C)NC(=O)CNC(=O)[C@H](Cc1ccccc1)NC(=O)[C@@H]1CC(=O)NCCCC[C@@H](NC(=O)[C@@H](N)Cc2ccc(O)cc2)C(=O)N[C@@H](Cc2ccccc2)C(=O)N[C@@H](Cc2ccccc2)C(=O)N1)C(N)=O` [compound 6, Tyr-[D-Lys-Phe-Phe-Asp]-Phe-Gly-Leu-Met-NH2] (H-Y[dK]FFDFGLM-NH2; lactam 2-5), the EC50 in [1] was 9.12 nM; in assay [4], 776 nM; in assay [5] (setting [10]) it was 4.68 nM; in assay [8] (Fluo-4 AM calcium signal), 151 nM. Also, the “MOR α ± SEM” value in assay [1] (SEM) came to 0.81 ± 0.05. Moreover, the Ki in assay [3] came out at 2.98 ± 0.14 nM; in assay [6], 2330 ± 189 nM; in assay [7], 28.7 ± 1.01 nM; in assay [9], 2.7 ± 0.12 nM. Further, the “NK1 α ± SEM” value in [4] (CHONK1 cells, N = 5, SEM) was found to be 1.03 ± 0.05. Besides, the “KOR α ± SEM” value in assay [5] (setting [11]) worked out at 0.92 ± 0.02. Further, the “DOR α ± SEM” value in assay [8] (SEM) came to 0.65 ± 0.05.

For `C[C@@H](O[C@H]1OCCN(Cc2n[nH]c(=O)[nH]2)[C@H]1c1ccc(F)cc1)c1cc(C(F)(F)F)cc(C(F)(F)F)c1` [aprepitant, reference compound], in [4] (CHONK1 cells, up to 10 µM), the “effect per se on intracellular calcium levels (tested as an agonist)” value is on record as “did not modify”.

As to `CSCC[C@H](NC(=O)[C@H](CC(C)C)NC(=O)CNC(=O)[C@H](Cc1ccccc1)NC(=O)[C@H](Cc1ccccc1)NC(=O)[C@@H]1CC(=O)NCCCC[C@@H](NC(=O)[C@@H](N)Cc2ccc(O)cc2)C(=O)N[C@@H](Cc2ccccc2)C(=O)N[C@@H](Cc2ccccc2)C(=O)N1)C(N)=O` [compound 5, Tyr-[D-Lys-Phe-Phe-Asp]-Phe-Phe-Gly-Leu-Met-NH2] (H-Y[dK]FFDFFGLM-NH2; lactam 2-5), the “MOR α ± SEM” value in [1] (SEM) was determined as 0.86 ± 0.03. The inhibition constant Ki in assay [3] was 4.9 ± 0.34 nM; in [6], 51.6 ± 4.2 nM; in assay [7], 96.6 ± 3.8 nM; in assay [9] it was 28.3 ± 1.71 nM. In addition, the figures for the EC50 in assay [4], in [5] and in assay [8] (Fluo-4 AM calcium signal) were 15.8 nM, 67.6 nM and 389 nM, respectively. Moreover, the “NK1 α ± SEM” value in assay [4] (CHONK1 cells, N = 5, SEM) was 1.11 ± 0.05. Besides, in assay [5] (setting [11]), the “KOR α ± SEM” value came to 0.64 ± 0.04. Further, the “DOR α ± SEM” value in [8] (SEM) worked out at 0.50 ± 0.01.

Consider `CSCC[C@H](NC(=O)[C@H](CC(C)C)NC(=O)CNC(=O)[C@@H]1CC(=O)NCCCC[C@@H](NC(=O)[C@@H](N)Cc2ccc(O)cc2)C(=O)N[C@@H](Cc2ccccc2)C(=O)N[C@@H](Cc2ccccc2)C(=O)N1)C(N)=O` [compound 7, Tyr-[D-Lys-Phe-Phe-Asp]-Gly-Leu-Met-NH2] (H-Y[dK]FFDGLM-NH2; lactam 2-5), for which the EC50 in [1] is 2.04 nM; in assay [4], 2090 nM; in assay [5] (setting [10]), 1.58 nM; in assay [8] (Fluo-4 AM calcium signal), 363 nM. In addition, the “MOR α ± SEM” value in assay [1] (SEM) was 0.85 ± 0.05. The Ki in assay [3] was found to be 1.14 ± 0.21 nM; in assay [6], 8130 ± 724 nM; in assay [7], 113 ± 4.6 nM; in assay [9] it was 0.89 ± 0.04 nM. In addition, the “NK1 α ± SEM” value in assay [4] (CHONK1 cells, N = 5, SEM) is 0.99 ± 0.08. For the same compound, in [5] (setting [11]), the “KOR α ± SEM” value is 1.06 ± 0.06. Moreover, in assay [8] (SEM), the “DOR α ± SEM” value is listed as 0.38 ± 0.04.

For the origin of these results see PMC6943619, “Synthesis and Pharmacological Evaluation of Hybrids Targeting Opioid and Neurokinin Receptors” (Molecules, 2019).
